The target in assay [1] is T1, MK2 (Homo sapiens, UniProt P49137). Briefly: MK2 degradation in human THP-1 monocytic cells (MSD, 24 h). Conditions: THP-1 cells; for DC50: read-out: MK2 MSD THP-1 degradation 24 h GMean External Abs DC50. More on the design: endogenous in cells. It is filed as cell-based. How it is done: The human monocytic cancer cell line THP-1 (ATCC (TIB-202)) was cultured in 96 well plates (Coming 3894) at a density of 200,000 cells per well in 100 microlitres in complete growth medium of RPMI 1640 (Gibco) pus 10% fetal Bovine Serum (Coming) and Penicillin/Streptomycin (SolarBio) at 37 degrees Celsius and 5% CO2. A serial dilution of each compound (usually 3 to 5 fold serial dilutions up to 10 separate concentration points) was added to individual wells from a 10 millimolar stock solution, at a background concentration of 0.1% DMSO and the cells were shaken at 600 rpm for 5 minutes and then were cultured for 24 hours at 37 degrees Celsius and 5% carbon dioxide. Separately, a custom MSD (MesoScaleDiscovery, L15XA-3) plate for detection of human MK2 was prepared by coating the plate with the commercial AbCarn ab247272 reagent in 1× Phosphate Buffered Saline at 40 microlitres per well and incubated at 4 degrees Celsius overnight. The next day, the MSD plate was washed with 150 microlitres of Tween buffered saline, blocked with MSD blocking buffer (3% BlockerA from MSD), and washed again.
T1 sequence (P49137 whole entry): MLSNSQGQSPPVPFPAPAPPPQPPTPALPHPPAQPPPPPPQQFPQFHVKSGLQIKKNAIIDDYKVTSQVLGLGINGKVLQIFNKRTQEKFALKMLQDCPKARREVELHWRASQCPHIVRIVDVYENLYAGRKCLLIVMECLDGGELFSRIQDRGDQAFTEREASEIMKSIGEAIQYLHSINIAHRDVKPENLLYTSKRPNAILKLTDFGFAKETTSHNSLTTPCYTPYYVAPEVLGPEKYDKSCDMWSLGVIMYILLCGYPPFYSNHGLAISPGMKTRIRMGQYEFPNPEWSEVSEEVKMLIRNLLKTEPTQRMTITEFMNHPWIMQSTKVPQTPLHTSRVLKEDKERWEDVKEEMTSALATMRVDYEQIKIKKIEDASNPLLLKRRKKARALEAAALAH
(§1) The cell plate was centrifuged at 3,200 g for 5 minutes and the supernatant was discarded and 100 microlitres of RIPA lysis buffer (containing proteinase inhibitors, Boston BioProducts BP-115D) was added and the plate was sealed and shaken on ice for 20 minutes. The plate was centrifuged as before and 70 microlitres of sample lysate was added to the MSD plates and they were shaken at room temperature for I hour at 600 rpm. The MSD plate was washed 3 times as before and then the primary MK2 detection antibody (Santa Cruz sc-100393) was added at a final concentration of 1 microgram per ml at 25 microlitres per well and shaken at room temperature for 1 hour at 600 rpm.
(§2) After 3 more washes, the secondary detection antibody (SULFO-Tag anti rabbit antibody R32AB-5) was added at a final concentration of 1 microgram per ml at 25 microlitres per well and shaken at room temperature for 1 hour at 600 rpm. After 3 more washes, the 1X MSD (diluted from 5X concentrate with water) reading buffer was added at 150 microlitres per well and read on the MSD instrument Meso Sector S 600.
The inhibition/degradation curves and DC50 values were plotted and calculated using XL Fit (version v5.3.1.3) using equation 201 and a 4 parameter logistic model whereby fit=(A+((B−A)/(1+((x/C)D))) where A is the Bottom and B is the Top and C is the IC50and D is the slope and high C is the signal for the DMSO treated cells and Low C is the signal is the signal for the lysis buffer.

Assay [2] has as its target T1, MK2. Nature of the assay: MK2 degradation in human SW1353 cells (MSD, 24 h). More on the design: endogenous in cells; host or cells: SW-1353 (ATCC HTB-94). The settings on record: for Dmax: read-out: MK2 MSD SW 1353 24 h Dmax %; for DC50: read-out: MK2 MSD SW1353 degradation 24 h GMean External Abs DC50. It is filed as cell-based. How it is done:
The human chondrocyte cancer cell line SW-1353 (ATCC(HTB-94)) was cultured in 96 well plates (Coming 3894) at a density of 200,000 cells per well in 100 microlitres in complete growth medium of Leibovitz's L-15 Medium (Gibco) pus 10% fetal Bovine Serum (Coming) and Penicillin/Streptomycin (SolarBio) at 37 degrees Celsius. A serial dilution of each compound (usually 3 to 5 fold serial dilutions up to 10 separate concentration points) was added to individual wells from a 10 millimolar stock solution, at a background concentration of 0.10% DMSO and the cells were shaken at 600 rpm for 5 minutes and then were cultured for 24 hours at 37 degrees Celsius. Separately, a custom MSD (MesoScaleDiscovery, L15XA-3) plate for detection of human MK2 was prepared by coating the plate with the commercial AbCam ab247272 reagent in 1× Phosphate Buffered Saline at 40 microlitres per well and incubated at 4 degrees Celsius overnight. The next day, the MSD plate was washed with 150 microlitres of Tween buffered saline, blocked with MSD blocking buffer (3% Blocker A from MSD), and washed again.
as §1, with “for 1” for “for I”
as §2
The inhibition/degradation curves and DC50 values were plotted and calculated using XL Fit (version v5.3.1.3) using equation 201 and a 4 parameter logistic model whereby fit=(A+((B−A)/(1+((x/C)D))) where A is the Bottom and B is the Top and C is the IC50 and D is the slope and high C is the signal for the DMSO treated cells and Low C is the signal is the signal for the lysis buffer.

Molecules are shown by their SMILES. Where only a bound is given, the exact number is not on record here.

Here are results for 21 compounds from US20260125397A1, “MK2 DEGRADERS AND USES THEREOF” (Kymera Therapeutics, Inc., priority 2023, published 2026).

For orientation: Dmax means the largest share of the target that was removed. By DC50 is commonly meant the midpoint of the concentration-degradation curve.

As to `C[C@@H]1CNc2c(sc3ccc4nc(N5CCN(CC6CCC7(CC6)CN(c6ccc(NC8CCC(=O)NC8=O)cc6F)C7)CC5)ccc4c23)C(=O)N1` (stereo partly drawn) [I-20], in assay [1], the Dmax is over 75% and the DC50 lay within 1 to 10 nM. For the same compound, in assay [2], the Dmax is over 75% and the DC50 was in the range of 1 to 10 nM.

Regarding `C[C@@H]1CNc2c(sc3ccc4nc(N5CC[C@H](N(C)C6CC7(CCN(c8ccc9c(c8)n(C)c(=O)n9C8CCC(=O)NC8=O)CC7)C6)C(F)(F)C5)ccc4c23)C(=O)N1` (stereo partly drawn) [I-21], in assay [1], the Dmax was over 75% and the 50% degradation concentration (DC50) is under 1 nM. Further, in assay [2], the Dmax was over 75% and the DC50 was under 1 nM.

For the compound `Cn1c(=O)n(C2CCC(=O)NC2=O)c2ccc(N3CC(CN4CCN(c5ccc(-c6nccc(-c7cc8c([nH]7)C(C)(C)CNC8=O)n6)cc5)CC4)C3)cc21` (stereo not drawn) [I-22], in assay [1], the Dmax was over 75% and the DC50 was under 1 nM. Also, in assay [2], the Dmax was over 75% and the DC50 is under 1 nM.

Regarding `C[C@@H]1CNc2c(sc3ccc4nc(N5CCN(CC6CCC7(CC6)CN(c6ccc8c(N9CCC(=O)NC9=O)cncc8c6)C7)CC5)ccc4c23)C(=O)N1` [I-23], in assay [1], the Dmax is over 75% and the DC50 was under 1 nM. In assay [2], the Dmax was over 75% and the DC50 is under 1 nM.

In the case of `Cn1c(=O)n(C2CCC(=O)NC2=O)c2cccc(OCCN3CCN(c4ccc(-c5nccc(-c6cc7c([nH]6)C6(CC6)CNC7=O)n5)c(F)c4)CC3)c21` (stereo not drawn) [I-24], in assay [1], the Dmax was over 75% and the DC50 was under 1 nM. For the same compound, in assay [2], the Dmax was over 75% and the 50% degradation concentration (DC50) is 1 to 10 nM.

On to `C[C@@H]1CNc2c(sc3ccc4nc(N5CCN(C6CC7(CCN(c8ccc(NC9CCC(=O)NC9=O)cc8F)CC7)C6)CC5)ccc4c23)C(=O)N1` (stereo partly drawn) [I-25], for which, in assay [1], the Dmax is over 75% and the DC50 is under 1 nM. In addition, in assay [2], the Dmax was over 75% and the DC50 lay within 1 to 10 nM.

On to `C[C@@H]1CNc2c(sc3ccc4nc(N5CCN(CCC6CCC7(CC6)CCN(C(=O)c6ccc(Cl)c(N8CCC(=O)NC8=O)c6)CC7)CC5)ccc4c23)C(=O)N1` [I-26], for which the greatest degradation seen (Dmax) in assay [1] and in assay [2] was over 75% throughout. Besides, the DC50 in assay [1] is under 1 nM; in assay [2], 1 to 10 nM.

Turning to `C[C@@H]1CNc2c(sc3ccc4nc(N5CCC(N(CC(F)(F)F)C6CC7(CCN(c8ccc9c(c8)n(C)c(=O)n9C8CCC(=O)NC8=O)CC7)C6)CC5)ccc4c23)C(=O)N1` (stereo partly drawn) [I-27], the Dmax in assay [1] and in assay [2] was over 75% throughout. In addition, the results for the 50% degradation concentration (DC50) in assay [1] and in assay [2] were under 1 nM and 1 to 10 nM, respectively.

As to `Cn1c(=O)n(C2CCC(=O)NC2=O)c2ccc(N3CC(CN4CCN(c5ccc(-c6cc(-c7cc8c(o7)C7(CC7)CNC8=O)ccn6)cc5)CC4)C3)cc21` (stereo not drawn) [I-28], in assay [1], the Dmax is over 75% and the DC50 is under 1 nM. Also, in assay [2], the Dmax is over 75% and the DC50 is under 1 nM.

Consider `Cn1c(=O)n(C2CCC(=O)NC2=O)c2ccc(N3CC(CN4CCN(c5ccc(-c6cc(-c7cc8c(o7)C7(CC7)CNC8=O)ncn6)cc5)CC4)C3)cc21` (stereo not drawn) [I-29], for which the Dmax in assay [1] and in assay [2] was over 50% in each case. The DC50 in assay [1] and in assay [2] was over 100 nM throughout.

Turning to `Cn1c(=O)n(C2CCC(=O)NC2=O)c2ccc(N3CC(CN4CCN(c5ccc(-c6cc(-c7cc8c([nH]7)C7(CC7)CNC8=O)ncn6)cc5)CC4)C3)cc21` (stereo not drawn) [I-30], in assay [1], the Dmax was 50 to 75% and the DC50 is under 1 nM. Also, in assay [2], the Dmax lay within 50 to 75% and the DC50 was under 1 nM.

Regarding `O=C1CCN(c2cncc3c(CCN4CCN(c5ccc(-c6nccc(-c7cc8c([nH]7)C7(CCC7)CNC8=O)n6)c(F)c5)CC4)cccc23)C(=O)N1` [I-31], the Dmax in assay [1] and in assay [2] was over 75% throughout. Also, the DC50 is under 1 nM in assay [1] and 1 to 10 nM in assay [2].

As to `Cn1c(=O)n(C2CCC(=O)NC2=O)c2cccc(-n3ccc(N4CCN(c5ccc(-c6nccc(-c7cc8c([nH]7)C7(CCCC7)CNC8=O)n6)cc5)CC4)c3)c21` (stereo not drawn) [I-32], in assay [1], the Dmax is over 50% and the half-maximal degradation concentration (DC50) is over 100 nM. Moreover, in assay [2], the Dmax is over 50% and the DC50 was over 100 nM.

As for `Cn1c(=O)n(C2CCC(=O)NC2=O)c2cccc(N3CCC(N4CCN(c5ccc(-c6nccc(-c7cc8c([nH]7)C7(CCCC7)CNC8=O)n6)cc5)CC4)C3)c21` (stereo not drawn) [I-33], in assay [1], the Dmax lay in the range of 50 to 75% and the DC50 was in the range of 1 to 10 nM. Besides, in assay [2], the Dmax was in the range of 50 to 75% and the 50% degradation concentration (DC50) was in the range of 1 to 10 nM.

Take `Cn1c(=O)n(C2CCC(=O)NC2=O)c2ccc(N3CC(CN4CCC(N5CCN(c6nccc(-c7cc8c([nH]7)C7(CC7)CNC8=O)n6)CC5)CC4)C3)cc21` (stereo not drawn) [I-34]: in assay [1], the Dmax is over 50% and the DC50 is over 100 nM. In assay [2], the Dmax was over 50% and the DC50 was over 100 nM.

Turning to `C[C@@H]1CNc2c(sc3ccc4nc(N5CCN(CCC6CC7(CCN(C(=O)c8ccc(Cl)c(N9CCC(=O)NC9=O)c8)CC7)C6)CC5)ccc4c23)C(=O)N1` [I-35], in assay [1], the Dmax was over 75% and the DC50 was under 1 nM. Further, in assay [2], the Dmax was over 75% and the DC50 is under 1 nM.

`C[C@@H]1CNc2c(sc3ccc4nc(N5CCC(OC6CCC7(CC6)CN(c6ccc8c(c6)n(C)c(=O)n8C6CCC(=O)NC6=O)C7)CC5)ccc4c23)C(=O)N1` (stereo partly drawn) [I-36]: in assay [1], the Dmax was over 75% and the DC50 was under 1 nM. Besides, in assay [2], the greatest degradation seen (Dmax) was over 75% and the 50% degradation concentration (DC50) was under 1 nM.

Turning to `Cn1c(=O)n(C2CCC(=O)NC2=O)c2ccc(N3CC(CN4CCN(c5ccc(-c6nccc(-c7cc8c([nH]7)C7(CC7)CNC8=O)n6)cc5C#N)CC4)C3)cc21` (stereo not drawn) [I-37], in assay [1], the Dmax is over 75% and the DC50 was under 1 nM. In assay [2], the Dmax was over 75% and the DC50 was under 1 nM.

`C[C@@H]1CNc2c(sc3ccc4nc(N5CCC(COC6CCN(c7ccc8c(c7)n(C)c(=O)n8C7CCC(=O)NC7=O)CC6)CC5)ccc4c23)C(=O)N1` (stereo partly drawn) [I-38]: the Dmax in assay [1] and in assay [2] was 50 to 75% throughout. The DC50 in assay [1] and in assay [2] was under 1 nM each time.

Turning to `C[C@@H]1CNc2c(sc3ccc4nc(N5CCN(C[C@H]6C[C@]7(CCN(c8ccc9c(c8)n(C)c(=O)n9C8CCC(=O)NC8=O)C7)C6)CC5)ccc4c23)C(=O)N1` (stereo partly drawn) [I-39], in assay [1], the Dmax is over 50% and the 50% degradation concentration (DC50) is under 1 nM. In assay [2], the maximal degradation (Dmax) was over 50% and the DC50 is under 1 nM.

As for `C[C@@H]1CNc2c(sc3ccc4nc(N5CCN(C[C@H]6C[C@@]7(CCN(c8ccc9c(c8)n(C)c(=O)n9C8CCC(=O)NC8=O)C7)C6)CC5)ccc4c23)C(=O)N1` (stereo partly drawn) [I-40], in assay [1], the Dmax was over 75% and the 50% degradation concentration (DC50) was under 1 nM. Besides, in assay [2], the Dmax is over 75% and the DC50 is under 1 nM.
